Earlier results as cited in US20040202731A1, “Rosmarinic acid composition” (priority 2003, published 2004).

Experiments:
human PMNL = conditions: concentrations of 10^-5 to 10^-3 M
rat liver microsomes = conditions: concentration of 25 μg/ml
[1] = in vivo

stability (turns to camphor with oxidation)	inhibition of lipid peroxidation of rat liver microsomes (rat liver microsomes)	absorption from the gastrointestinal tract and from the skin [1]	Compound	endotoxin-induced activation of complement and concomitant formation of prostacyclin (complement)	formation of 5-HETE from human PMNL (human PMNL)	formation of LTB4 from human PMNL (human PMNL)
highly unstable	–	–	CC1(C)C2CCC1(C)C(O)C2 (stereo not drawn) [Borneol, endo-1,7,7-trimethyl-bicyclo[2.2.1]heptan-2-ol]	–	–	–
–	90%	well absorbed	O=C(/C=C/c1ccc(O)c(O)c1)O[C@H](Cc1ccc(O)c(O)c1)C(=O)O [Rosmarinic acid]	suppresses	inhibited	inhibited
